The values below come from patent US20150290171A1, “METHODS FOR THE TREATMENT OF BONE LOSS” (CELGENE CORPORATION, priority 2012, published 2015).

Where two headings read alike, the source gives them in different places.

Assay [1] deals with Phosphodiesterase 4 enzyme. Nature of the assay: Inhibition of PDE4 (enzyme purified from U937 cells, [3H]-cAMP). Format: biochemical. As to conditions: PDE4 from U937 human monocytic cells, 1 μM cAMP, 45 min at 30° C. On the procedure:
Phosphodiesterase 4 enzyme was purified from U937 human monocytic cells by gel filtration chromatography, and phosphodiesterase reactions were carried out as previously described. See, e.g., Muller et al., Bioorg. Med. Chem. Lett., 1998, 8(19): 2669-2674. Briefly, reactions were carried out in 96-well deep-well plates in 50 mM Tris HCl pH 7.5, 5 mM MgCl2, 1 μM cyclic adenosine monophosphate (cAMP), plus 10 nM [^3H]-cAMP for 45 min at 30° C. The reactions were terminated by boiling, treated with 1 mg/ml snake venom, and separated using AG-1X8 ion exchange resin (BioRad). Reactions consumed less than 15% of available substrate.

In assay [2] the test system is Human bone marrow mononuclear cells differentiated into OCL. Kind of assay: OCL differentiation (osteoclastogenesis), number of TRAP-5+ cells. As to conditions: OCL cultures, 7 days. Type of assay: cell-based.
Assay [3] has as its system sRANKL protein. Nature of the assay: sRANKL protein levels in OCL cultures. Type of assay: cell-based, human.
Assay [4] concerns BMP-6 gene expression. Nature of the assay: BMP-6 gene expression in OCL cultures (RT-PCR). Type of assay: cell-based, human. As to conditions: FIG. 5.
Assay [5] deals with RAW 264.7 mouse macrophages. Nature of the assay: OCL pit formation. Format: cell-based. As to conditions: RAW 264.7 cells with RANKL 50 ng/mL, FIG. 6 and 7.
Assay [6] deals with sRANKL protein. Nature of the assay: OBL culture, sRANKL protein in supernatant (ELISA). As to conditions: 7 days; for reduction of sRANKL protein levels: OBL; for effect on sRANKL protein levels: OBL supernatants. Type of assay: cell-based, human. How it is done: (§1) Normal human OBL (nHOST, Lonza) were grown using OBL basal medium containing 10% fetal bovine serum, ascorbic acid, and gentamicin/amphotericin-B (Lonza). Cells were grown to a density of 5×10^5 cells/mL. Compounds were added and the final concentration of dimethyl sulfoxide (DMSO) was 0.25%. Plates were incubated at 5% CO2, 37° C. for 7 days, changing media every 3 days and adding fresh compound. The supernatant was collected for analysis of RANKL (USCNK Life Science Inc), OPG (R&D Systems), and SOST (R&D Systems) by enzyme-linked immunosorbent assay (ELISA). Cells were stained for ALP.

Assay [7] deals with OPG protein. Nature of the assay: OBL culture, OPG protein in supernatant (ELISA). As to conditions: 0.1 μM. Type of assay: cell-based, human. On the procedure:
as §1
A general note: In an ELISA, binding on a coated surface is turned into a signal by an enzyme label.

Assay [8] has as its system sRANKL/OPG protein ratio. Kind of assay: OBL culture, sRANKL/OPG protein ratio. Format: cell-based, human. How it is done: as §1
Assay [9] has as its system sRANKL. Nature of the assay: OCY differentiation, sRANKL production (ELISA). Type of assay: cell-based, human. On the procedure:
(§2) OBL were differentiated into OCY using hydroxyapatite/tricalcium phosphate biphasic calcium phosphate ceramic particles (Graftys BCP), which were placed into polycarbonate filter well inserts, and the cell culture media was changed every 3 days for a total of 28 days. Gene expression was measured by quantitative RT-PCR for the following: RANK, RANKL, SOST, OPG, mothers against decapentaplegic homolog 1 (SMAD1), collagen 9A2 (COL9A2), vascular endothelial growth factor C (VEGFC), and fibroblast growth factor receptor 1 (FGFR1). Protein production was measured by ELISA.

Assay [10] has as its system SOST protein. Nature of the assay: OCY differentiation, SOST protein levels (ELISA). Type of assay: cell-based, human. On the procedure: as §2
Assay [11] has as its system RANK gene expression. As to conditions: OCL cultures.
Experimental: Human bone marrow mononuclear cells were differentiated into OCL using 10 nM dexamethasone and 10 nM vitamin D for 7 days. APR (0.1-10 μM) was added with fresh medium on days 0 and 3. […] OCL were lysed and RNA was isolated and converted to cDNA. Reverse transcription polymerase chain reaction (RT-PCR) was performed to measure gene expression of RANK and bone morphogenetic protein 6 (BMP-6).

What is called IC50 is the concentration that gives 50% inhibition. In assay [1], `CCOc1cc([C@@H](CS(C)(=O)=O)N2C(=O)c3cccc(NC(C)=O)c3C2=O)ccc1OC` [(+)-2-[1-(3-ethoxy-4-methoxyphenyl)-2-methanesulfonylethyl]-4-acetylaminoisoindolin-1,3-dione] displayed an IC50 of 0.0735 µM. Besides, the “reduction of number of TRAP-5+ cells” value in [2] (0.1 μM) is 21%; in [2] (1 μM), 49%; in assay [2] (10 μM), 73%. The “reduction of sRANKL protein levels” value stood at 25% in assay [3] (0.1 μM); 21% in assay [3] (1 μM); 38% in assay [3] (10 μM); 25% in assay [6] (1 μM); 25% in [6] (10 μM). Besides, the “effect on BMP-6 gene expression” value in [4] is listed as “increase of BMP-6 gene expression”. Also, in [5], the “effect on OCL pit formation” value was “inhibition of OCL pit formation”. Further, the “increase of OPG protein levels” value in assay [7] stood at 42%. For the same compound, the results for the “decrease of sRANKL/OPG protein ratio” value in assay [8] (0.1 μM), in assay [8] (1 μM) and in assay [8] (10 μM) were 39%, 32% and 40%, respectively. In addition, the “reduction of sRANKL production” value was determined as 18% in [9] (0.1 μM), 14% in [9] (1 μM) and 17% in assay [9] (10 μM). For the same compound, the entries for the “reduction of SOST protein levels” value in [10] (0.1 μM), in assay [10] (1 μM) and in assay [10] (10 μM) were 16%, 20% and 14%, respectively. Further, the “inhibition of RANK gene expression” value in [11] (1 μM) worked out at 30%; in assay [11] (10 μM) it was 25%.
Regarding `NCCCC(O)(P(=O)(O)O)P(=O)(O)O` [Alendronate, alendronate, reference compound], in assay [6] (10 μM), the “effect on sRANKL protein levels” value was “no significant effect”. In addition, the “effect on sRANKL/OPG ratio” value in assay [8] (10 μM) is recorded as “no effect”. Further, the “inhibition of RANK gene expression” value in assay [11] (10 μM) is 77%.
Consider `COc1ccc(C2CNC(=O)C2)cc1OC1CCCC1` (stereo not drawn) [Rolipram, rolipram, reference compound], for which the “effect on sRANKL protein levels” value in assay [6] (10 μM) is given as “no significant effect”. Besides, in assay [8] (10 μM), the “effect on sRANKL/OPG ratio” value was “no effect”.
Regarding `O=C(O)c1cc(/N=N/c2ccc(S(=O)(=O)Nc3ccccn3)cc2)ccc1O` [sulfasalazine, reference compound], the “effect on sRANKL protein levels” value in [6] (30 μM) is listed as “no significant effect”. The “effect on sRANKL/OPG ratio” value in assay [8] (30 μM) is given as “no effect”.
